Activity calls are given as the source filed them. No rule for the calls is given here.
Test system: CCRIS mutagenicity, Ames/micronucleus/aberration tests
Assay: CCRIS mutagenicity studies
[1] = Test System: AMES SALMONELLA TYPHIMURIUM, Strain/Indicator: TA100, Metabolic Activation: RAT, LIVER, S-9, AROCLOR 1254, Method: STANDARD PLATE

## O=C(O)c1ccccc1Cl
Test System: AMES SALMONELLA TYPHIMURIUM, Strain/Indicator: TA97, Metabolic Activation: HAMSTER, LIVER, S-9, AROCLOR 1254 (10 OR 30%), Method: PREINCUBATION
  mutagenic call: inactive; negative
Test System: AMES SALMONELLA TYPHIMURIUM, Strain/Indicator: TA97, Metabolic Activation: NONE, Method: PREINCUBATION
  mutagenic call: inactive; negative
Test System: AMES SALMONELLA TYPHIMURIUM, Strain/Indicator: TA97, Metabolic Activation: RAT, LIVER, S-9, AROCLOR 1254 (10 OR 30%), Method: PREINCUBATION
  mutagenic call: inactive; negative
Test System: AMES SALMONELLA TYPHIMURIUM, Strain/Indicator: TA98, Metabolic Activation: HAMSTER, LIVER, S-9, AROCLOR 1254 (10 OR 30%), Method: PREINCUBATION
  mutagenic call: inactive; negative
Test System: AMES SALMONELLA TYPHIMURIUM, Strain/Indicator: TA98, Metabolic Activation: NONE, Method: PREINCUBATION
  mutagenic call: inactive; negative
Test System: AMES SALMONELLA TYPHIMURIUM, Strain/Indicator: TA98, Metabolic Activation: RAT LIVER S-9, PCB, Method: PREINCUBATION
  mutagenic call: inactive; negative
Test System: AMES SALMONELLA TYPHIMURIUM, Strain/Indicator: TA98, Metabolic Activation: RAT LIVER S-9, PHENOBARBITAL AND BETA-NAPHTHOFLAVONE, Method: PREINCUBATION
  mutagenic call: inactive; negative
Test System: AMES SALMONELLA TYPHIMURIUM, Strain/Indicator: TA98, Metabolic Activation: RAT, LIVER, S-9, AROCLOR 1254 (10 OR 30%), Method: PREINCUBATION
  mutagenic call: inactive; negative
Test System: AMES SALMONELLA TYPHIMURIUM, Strain/Indicator: TA100, Metabolic Activation: HAMSTER, LIVER, S-9, AROCLOR 1254 (10 OR 30%), Method: PREINCUBATION
  mutagenic call: inactive; negative
Test System: AMES SALMONELLA TYPHIMURIUM, Strain/Indicator: TA100, Metabolic Activation: NONE, Method: PREINCUBATION
  mutagenic call: inactive; negative
Test System: AMES SALMONELLA TYPHIMURIUM, Strain/Indicator: TA100, Metabolic Activation: RAT LIVER S-9, PCB, Method: PREINCUBATION
  mutagenic call: inactive; negative
Test System: AMES SALMONELLA TYPHIMURIUM, Strain/Indicator: TA100, Metabolic Activation: RAT LIVER S-9, PHENOBARBITAL AND BETA-NAPHTHOFLAVONE, Method: PREINCUBATION
  mutagenic call: inactive; negative
Test System: AMES SALMONELLA TYPHIMURIUM, Strain/Indicator: TA100, Metabolic Activation: RAT, LIVER, S-9, AROCLOR 1254 (10 OR 30%), Method: PREINCUBATION
  mutagenic call: inactive; negative
Test System: AMES SALMONELLA TYPHIMURIUM, Strain/Indicator: TA104, Metabolic Activation: NONE, Method: PREINCUBATION
  mutagenic call: inactive; negative
Test System: AMES SALMONELLA TYPHIMURIUM, Strain/Indicator: TA104, Metabolic Activation: RAT LIVER S-9, PCB, Method: PREINCUBATION
  mutagenic call: inactive; negative
Test System: AMES SALMONELLA TYPHIMURIUM, Strain/Indicator: TA1535, Metabolic Activation: HAMSTER, LIVER, S-9, AROCLOR 1254 (10 OR 30%), Method: PREINCUBATION
  mutagenic call: inactive; negative
Test System: AMES SALMONELLA TYPHIMURIUM, Strain/Indicator: TA1535, Metabolic Activation: NONE, Method: PREINCUBATION
  mutagenic call: inactive; negative
Test System: AMES SALMONELLA TYPHIMURIUM, Strain/Indicator: TA1535, Metabolic Activation: RAT LIVER S-9, PHENOBARBITAL AND BETA-NAPHTHOFLAVONE, Method: PREINCUBATION
  mutagenic call: inactive; negative
Test System: AMES SALMONELLA TYPHIMURIUM, Strain/Indicator: TA1535, Metabolic Activation: RAT, LIVER, S-9, AROCLOR 1254 (10 OR 30%), Method: PREINCUBATION
  mutagenic call: inactive; negative
Test System: AMES SALMONELLA TYPHIMURIUM, Strain/Indicator: TA1537, Metabolic Activation: HAMSTER, LIVER, S-9, AROCLOR 1254 (30%), Method: PREINCUBATION
  mutagenic call: inactive; negative
Test System: AMES SALMONELLA TYPHIMURIUM, Strain/Indicator: TA1537, Metabolic Activation: NONE, Method: PREINCUBATION
  mutagenic call: inactive; negative
Test System: AMES SALMONELLA TYPHIMURIUM, Strain/Indicator: TA1537, Metabolic Activation: RAT LIVER S-9, PHENOBARBITAL AND BETA-NAPHTHOFLAVONE, Method: PREINCUBATION
  mutagenic call: inactive; negative
Test System: AMES SALMONELLA TYPHIMURIUM, Strain/Indicator: TA1537, Metabolic Activation: RAT, LIVER, S-9, AROCLOR 1254 (30%), Method: PREINCUBATION
  mutagenic call: inactive; negative
Test System: AMES SALMONELLA TYPHIMURIUM, Strain/Indicator: TA1538, Metabolic Activation: NONE, Method: PREINCUBATION
  mutagenic call: inactive; negative
Test System: AMES SALMONELLA TYPHIMURIUM, Strain/Indicator: TA1538, Metabolic Activation: RAT LIVER S-9, PHENOBARBITAL AND BETA-NAPHTHOFLAVONE, Method: PREINCUBATION
  mutagenic call: inactive; negative
Test System: E.COLI, Strain/Indicator: WP2 UVRA, Metabolic Activation: NONE, Method: PREINCUBATION
  mutagenic call: inactive; negative
Test System: E.COLI, Strain/Indicator: WP2UVRA, Metabolic Activation: NONE, Method: PREINCUBATION
  mutagenic call: inactive; negative
Test System: E.COLI, Strain/Indicator: WP2 UVRA, Metabolic Activation: RAT LIVER S-9, PCB, Method: PREINCUBATION
  mutagenic call: inactive; negative
Test System: E.COLI, Strain/Indicator: WP2UVRA, Metabolic Activation: RAT LIVER S-9, PHENOBARBITAL AND BETA-NAPHTHOFLAVONE, Method: PREINCUBATION
  mutagenic call: inactive; negative

## CC1c2cc(F)ccc2-c2ccc(F)cc21
[1]
  mutagenic call: active; positive

## CC(C(=O)O)c1ccc(Oc2nccs2)cc1 (configuration not stated)
Test System: AMES SALMONELLA TYPHIMURIUM, Strain/Indicator: TA98, Metabolic Activation: NONE, Method: STANDARD PLATE
  mutagenic call: inactive; negative
Test System: AMES SALMONELLA TYPHIMURIUM, Strain/Indicator: TA98, Metabolic Activation: RAT, LIVER, S-9, AROCLOR 1254, Method: STANDARD PLATE
  mutagenic call: inactive; negative
Test System: AMES SALMONELLA TYPHIMURIUM, Strain/Indicator: TA100, Metabolic Activation: NONE, Method: STANDARD PLATE
  mutagenic call: inactive; negative
[1]
  mutagenic call: inactive; negative
Test System: AMES SALMONELLA TYPHIMURIUM, Strain/Indicator: TA1535, Metabolic Activation: NONE, Method: STANDARD PLATE
  mutagenic call: inactive; negative
Test System: AMES SALMONELLA TYPHIMURIUM, Strain/Indicator: TA1535, Metabolic Activation: RAT, LIVER, S-9, AROCLOR 1254, Method: STANDARD PLATE
  mutagenic call: inactive; negative
Test System: AMES SALMONELLA TYPHIMURIUM, Strain/Indicator: TA1537, Metabolic Activation: NONE, Method: STANDARD PLATE
  mutagenic call: inactive; negative
Test System: AMES SALMONELLA TYPHIMURIUM, Strain/Indicator: TA1537, Metabolic Activation: RAT, LIVER, S-9, AROCLOR 1254, Method: STANDARD PLATE
  mutagenic call: inactive; negative
Test System: E. COLI, Strain/Indicator: WP2, Metabolic Activation: NONE, Method: STANDARD PLATE
  mutagenic call: inactive; negative
Test System: E. COLI, Strain/Indicator: WP2, Metabolic Activation: RAT, LIVER, S-9, AROCLOR 1254, Method: STANDARD PLATE
  mutagenic call: inactive; negative
Test System: E. COLI, Strain/Indicator: WP2 UVRA, Metabolic Activation: NONE, Method: STANDARD PLATE
  mutagenic call: inactive; negative
Test System: E. COLI, Strain/Indicator: WP2 UVRA, Metabolic Activation: RAT, LIVER, S-9, AROCLOR 1254, Method: STANDARD PLATE
  mutagenic call: inactive; negative
